From patent US20230310459A1, “NEUROACTIVE STEROIDS AND THEIR METHODS OF USE” (Sage Therapeutics, Inc., priority 2017, published 2023)
“Also recorded” adds a separate entry of the source. Marks after values point to notes of the source that are not given here.

Experiments:
[1] = test system: Adult patients with moderate to severe Major Depressive Disorder (MDD); assay: Phase 2 double-blind placebo-controlled trial (Part B): safety and tolerability; type: in vivo, human
Protocol: In the randomized, double-blind, parallel-group, placebo-controlled trial, eligible patients (with a minimum total score of 22 on the Hamilton Rating Scale for Depression) were stratified based on use of antidepressant treatment (current/stable or not treated/withdrawn ≥30 days) and randomized in a 1:1 ratio to receive Compound 1 Capsules (30 mg) or matching placebo. All doses of study drug were administered at night with food. The study consisted of a 14-day treatment period, and a 4-week follow-up period. The mean HAM-D total scores at baseline were 25.2 for the Compound 1 group and 25.7 for the placebo group (overall range 22-33), representing patients with moderate to severe MDD. Approximately 90 percent of patients in each group completed the study.

[2] = test system: Subjects with Major Depressive Disorder; assay: Phase 2 open-label study (Part A): safety and tolerability (TEAEs, C-SSRS); type: in vivo, human; settings: N=13
Protocol: In this multicenter, open-label, Phase 2 clinical trial, subjects were administered 30 mg Compound 1 on Days 1-14 and assessed through Day 28. Reductions in depressive and anxiety symptoms were assessed by the Hamilton Rating Scales for Depression and Anxiety (HAM-D and HAM-A), and the Montgomery-Asberg Depression Rating Scale (MADRS). Safety and tolerability were assessed via standard safety parameters. Pharmacokinetic parameters were also evaluated.
Compound 1 was provided as a 6 mg/mL stock aqueous solution, which was further diluted with sterile water to achieve the selected dose that was administered as an oral solution. Participants received an open label 30 mg Compound 1 oral dose administered at 8:00 PM (+/−15 minutes) with food on Days 1 through 14. Subjects who experienced drug-related moderate or severe adverse events (as judged by the study investigators) while receiving the 30 mg dose of study drug were to have their dose reduced to 20 mg for the remaining treatment period. Any subjects not tolerating a 20 mg dose were to be terminated from the study. Vital signs were collected daily. Other study procedures and plasma collection for PK parameters were conducted at various times during the 14-day open label treatment period (procedure details in the Supplemental Appendix). Treatment follow-up was conducted on an outpatient basis and included a follow-up visit at 1 week (21+/−1 day) and at 2 weeks (28+/−1 day) after the last dose of the study drug.
The primary endpoint of safety and tolerability of Compound 1 was assessed by the frequency and severity of adverse events, vital signs, changes in clinical laboratory measures, physical exams, electrocardiograms (ECGs), the Stanford Sleepiness Scale (SSS) score, and suicide ideation using the Columbia-Suicide Severity Rating Scale (C-SSRS, Supplemental Table 1). Secondary efficacy endpoints included: change from baseline in HAM-D total score, HAM-D response, defined as having a 50% or greater reduction from baseline in HAM-D total score, HAM-D remission, defined as having a HAM-D total score of ≤7, HAM-A change from baseline, and MADRS score change from baseline. The PK profile of Compound 1 was also determined from plasma samples.
Subjects were monitored for safety during the Treatment and Follow-up Periods including monitoring for adverse events/serious adverse events, routine clinical laboratory assessments, physical examination, vital signs, and ECG. During the Treatment Period, subjects received study drug as long as there are no dose-limiting safety/tolerability concerns

SMILES: C[C@@]1(O)CC[C@H]2[C@H](CC[C@@H]3[C@@H]2CC[C@]2(C)[C@@H](C(=O)Cn4cc(C#N)cn4)CC[C@@H]32)C1 [Compound 1, 1-(2-((3R,5R,8R,9R,10S,13S,14S,17S)-3-hydroxy-3,13-dimethylhexadecahydro-1H-cyclopenta[a]phenanthren-17-yl)-2-oxoethyl)-1H-pyrazole-4-carbonitrile]
- deaths, serious or severe adverse events ([1]; Capsules 30 mg for 14 days): no deaths, serious or severe adverse events
- most common AEs ([1]; Capsules 30 mg for 14 days): headache, dizziness, nausea, and somnolence
- tolerability ([1]; Capsules 30 mg for 14 days): generally well-tolerated; also recorded: generally well tolerated
- overall incidence of patients who experienced adverse events ([1]; Capsules 30 mg for 14 days, placebo 46%): 53%
- rate of discontinuation from dosing of study drug due to adverse events ([1]; two patients, none with placebo): 4.4%
- At least one TEAE, number of subjects ([2]; 30 mg once daily Days 1-14): 12 subjects
- tolerability ([2]; 30 mg once daily Days 1-14): generally well tolerated
- C-SSRS Subject engaged in non-suicidal self-injurious behavior, number of subjects who answered yes ([2]; Day 2-15 (yes on Days 10-13)): 1*
- C-SSRS Aborted attempt, number of subjects who answered yes ([2]; Day 2-15): 0
- C-SSRS Actual attempt, number of subjects who answered yes ([2]; Day 2-15): 0
- C-SSRS Interrupted attempt, number of subjects who answered yes ([2]; Day 2-15): 0
- C-SSRS Preparatory acts or behavior, number of subjects who answered yes ([2]; Day 2-15): 0
- C-SSRS Suicidal behavior, number of subjects who answered yes ([2]; Day 2-15): 0
- Dizziness, number of subjects [2]: 3 subjects
- Dizziness, percent of subjects [2]: (23.1%)
- Drug-related TEAE, number of subjects [2]: 11 subjects
- Drug-related TEAE, percent of subjects [2]: (84.6%)
- Headache, number of subjects [2]: 4 subjects
- Headache, percent of subjects [2]: (30.8%)
- Myalgia, number of subjects [2]: 3 subjects
- Myalgia, percent of subjects [2]: (23.1%)
- Nasal Congestion, number of subjects [2]: 2 subjects
- Nasal Congestion, percent of subjects [2]: (15.4%)
- Sedation, number of subjects [2]: 6 subjects
- Sedation, percent of subjects [2]: (46.2%)
- Serious AE, number of subjects [2]: 0 subjects
- Severe TEAE, number of subjects [2]: 0 subjects
- Somnolence, number of subjects [2]: 3 subjects
- Somnolence, percent of subjects [2]: (23.1%)
- TEAE leading to death, number of subjects [2]: 0 subjects
- TEAE leading to drug discontinuation, number of subjects [2]: 0 subjects
- changes in clinical hematology, urinalysis, vital signs, or ECGs [2]: no clinically relevant changes
- serious adverse events (SAEs) or discontinuations due to AEs [2]: no serious adverse events (SAEs) or discontinuations due to AEs
